The test has as its target ROMK (Kir1.1) channel (Homo sapiens (Human), UniProt P48048). Briefly: Thallium Flux Assay. Format: cell-based. As for the experimental part: A Thallium Flux Assay was performed on each of the final product compounds of the Examples. This assay has been described previously; see, e.g., PCT Published Application WO 2013/062900.

Each structure is given as a SMILES string.

ROMK (Kir1.1) channel, sequence (P48048 whole entry): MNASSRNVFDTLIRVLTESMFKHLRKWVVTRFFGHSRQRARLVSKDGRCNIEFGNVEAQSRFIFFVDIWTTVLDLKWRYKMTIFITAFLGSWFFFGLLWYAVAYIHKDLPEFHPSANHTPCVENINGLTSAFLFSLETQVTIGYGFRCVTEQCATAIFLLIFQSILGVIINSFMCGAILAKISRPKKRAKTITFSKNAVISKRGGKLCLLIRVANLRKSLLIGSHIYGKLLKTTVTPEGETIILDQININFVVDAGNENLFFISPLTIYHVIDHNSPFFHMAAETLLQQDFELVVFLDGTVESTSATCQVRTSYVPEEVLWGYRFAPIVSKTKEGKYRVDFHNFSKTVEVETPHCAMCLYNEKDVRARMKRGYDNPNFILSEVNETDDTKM

`C[C@@H]1C[C@]2(CC[C@H](NCc3ccc4c(c3)Cn3nnnc3-4)CC2)C(=O)N1C1=CC(=O)OC1` [Example 65, (3R,5s,8S)-8-(((5H-tetrazolo[5,1-a]isoindol-7-yl)methyl)amino)-3-methyl-2-(5-oxo-2,5-dihydrofuran-3-yl)-2-azaspiro[4.5]decan-1-one]: the IC50 (as a rule, the concentration at which inhibition is half-maximal) amounted to 19 nM.

For `CC1=C(N2CC[C@]3(CC[C@](C)(N(C)Cc4cnc(-n5cnnn5)cn4)CC3)C2=O)COC1=O` [Example 127], it took 91 nM to reach half-maximal inhibition (IC50).

In turn, `CC1=C(N2CC[C@]3(CC[C@@H](N(C)Cc4nnc(-n5cnnn5)cc4C)CC3)C2=O)COC1=O` [Example 107] returned a half-inhibitory concentration (IC50) of 22 nM.

Consider `CC1=C(N2CC[C@]3(CC[C@@H](NCc4ccc(-n5ncnn5)cc4)CC3)C2=O)COC1=O` [Example 41, (5r,8r)-2-(4-methyl-5-oxo-2,5-dihydrofuran-3-yl)-8-{[4-(2H-tetrazol-2-yl)benzyl]amino}-2-azaspiro[4.5]decan-1-one], for which the IC50 is 3.3 nM.

Regarding `CC1=C(N2CC[C@]3(CC[C@@H](NCc4ccc(-n5cnnn5)cn4)CC3)C2=O)COC1=O` [Example 7B, (5r,8r)-2-(4-methyl-5-oxo-2,5-dihydrofuran-3-yl)-8-({[5-(1H-tetrazol-1-yl)pyridin-2-yl]methyl}amino)-2-azaspiro[4.5]decan-1-one], the IC50 was found to be 710 nM.

Compound `CC1=C(N2CC[C@]3(CC[C@@H](N(C)Cc4ncc(-n5cnnn5)nc4C)CC3)C2=O)COC1=O` [Example 125] registered a half-maximal inhibitory concentration (IC50) of 22 nM.

In turn, `CC1=C(N2CC[C@]3(CC[C@@H](N[C@H](C)c4ccc(-n5cnnn5)cn4)CC3)C2=O)COC1=O` [Example 32] registered an IC50 of 110 nM.

Turning to `C[C@H]1C[C@]2(CC[C@H](NCc3cnc(-n4cnnn4)cn3)CC2)C(=O)N1C1=CC(=O)OC1` [Example 28, (3S,5s,8R)-3-methyl-2-(5-oxo-2,5-dihydrofuran-3-yl)-8-({[5-(1H-tetrazol-1-yl)pyrazin-2-yl]methyl}amino)-2-azaspiro[4.5]decan-1-one], the half-inhibitory concentration (IC50) is 250 nM.

`CC1=C(N2CC[C@]3(CC[C@H](N[C@H](C)c4ccc5c(c4)CCc4nnnn4-5)CC3)C2=O)COC1=O` [Example 17, (5S,8s)-8-{[(1R)-1-(4,5-dihydrotetrazolo[1,5-a]quinolin-7-yl)ethyl]amino}-2-(4-methyl-5-oxo-2,5-dihydrofuran-3-yl)-2-azaspiro[4.5]decan-1-one] showed an IC50 of 340 nM.

The compound `CC1=C(N2CC[C@]3(CC[C@@H](N[C@@H](C)c4ccc5c(c4)Cn4nnnc4-5)CC3)C2=O)COC1=O` [Example 31, (5S,8r)-2-(4-methyl-5-oxo-2,5-dihydrofuran-3-yl)-8-{[(1S)-1-(5H-tetrazolo[5,1-a]isoindol-7-yl)ethyl]amino}-2-azaspiro[4.5]decan-1-one] gave an IC50 of 260 nM.

In turn, `CC1=C(N2CC[C@]3(CC[C@@H](NCc4nnc(-n5cnnn5)cc4C)CC3)C2=O)COC1=O` [Example 12, (5r,8r)-2-(4-methyl-5-oxo-2,5-dihydrofuran-3-yl)-8-({[4-methyl-6-(1H-tetrazol-1-yl)pyridazin-3-yl]methyl}amino)-2-azaspiro[4.5]decan-1-one] yielded an IC50 of 8.3 nM.

`CC1=C(N2CC[C@]3(CC[C@H](N(C)Cc4ccc(-n5cnnn5)nc4)CC3)C2=O)COC1=O` [Example 83] registered a half-maximal inhibitory concentration (IC50) of 28 nM.

As to `CC1=C(N2CC[C@]3(CC[C@@H](NCc4ncc(-n5cnnn5)nc4C)CC3)C2=O)COC1=O` [Example 14, (5r,8r)-2-(4-methyl-5-oxo-2,5-dihydrofuran-3-yl)-8-({[3-methyl-5-(1H-tetrazol-1-yl)pyrazin-2-yl]methyl}amino)-2-azaspiro[4.5]decan-1-one], the IC50 stood at 30 nM.

For the compound `C[C@@H]1C[C@]2(CC[C@H](NCc3cnc(-n4cnnn4)cn3)CC2)C(=O)N1C1=CC(=O)OC1` [Example 26, (3R,5s,8S)-3-methyl-2-(5-oxo-2,5-dihydrofuran-3-yl)-8-({[5-(1H-tetrazol-1-yl)pyrazin-2-yl]methyl}amino)-2-azaspiro[4.5]decan-1-one], the IC50 turned out to be 190 nM.

For `CC1=C(N2CC[C@]3(CC[C@](C)(NCc4ccc(-n5cnnn5)nn4)CC3)C2=O)COC1=O` [Example 42, (5s,8s)-8-methyl-2-(4-methyl-5-oxo-2,5-dihydrofuran-3-yl)-8-({[6-(1H-tetrazol-1-yl)pyridazin-3-yl]methyl}amino)-2-azaspiro[4.5]decan-1-one], the IC50 came to 70 nM.

Regarding `CCN(Cc1ccc2c(c1C)COC2=O)C1CCC2(CC1)CCN(C1=C(C)C(=O)OC1)C2=O` (centres unmarked) [Example 142], half-maximal inhibition (IC50) required 490 nM.

As for `CC1=C(N2CC[C@]3(CC[C@@H](NCc4ccc(-n5cnnn5)nc4)CC3)C2=O)COC1=O` [Example 5, (5r,8r)-2-(4-methyl-5-oxo-2,5-dihydrofuran-3-yl)-8-({[6-(1H-tetrazol-1-yl)pyridin-3-yl]methyl}amino)-2-azaspiro[4.5]decan-1-one], the IC50 was 16 nM.

Compound `CC1=C(N2CC[C@]3(CC[C@@H](N(C)Cc4ccc(-n5ncnn5)nn4)CC3)C2=O)COC1=O` [Example 113] displayed a half-inhibitory concentration (IC50) of 36 nM.

Compound `CC1=C(N2CC[C@]3(CC[C@@H](N(C)Cc4ccc5c(c4F)Cn4nnnc4-5)CC3)C2=O)COC1=O` [Example 121] registered a half-inhibitory concentration (IC50) of 23 nM.

`CC1=C(N2CC[C@]3(CC[C@@H](N(C)Cc4cnc(-n5cnnn5)cn4)CC3)C2=O)COC1=O` [Example 92] came in with a half-maximal inhibitory concentration (IC50) of 29 nM.

The compound `CC1=C(N2CC[C@]3(CC[C@H](N(CCO)Cc4ccc(-n5cnnn5)nc4)CC3)C2=O)COC1=O` [Example 131, (5s,8s)-8-[(2-hydroxyethyl) {[6-(1H-tetrazol-1-yl)pyridin-3-yl]methyl}amino]-2-(4-methyl-5-oxo-2,5-dihydrofuran-3-yl)-2-azaspiro[4.5]decan-1-one] yielded an IC50 of 160 nM.

`CC1=C(N2CC[C@]3(CC[C@H](N(C)Cc4ccc(-n5ncnn5)nn4)CC3)C2=O)COC1=O` [Example 114] yielded an IC50 of 430 nM.

Compound `CC1=C(N2CC[C@]3(CC[C@H](N(CC(N)=O)Cc4ccc(-n5cnnn5)nc4)CC3)C2=O)COC1=O` [Example 140] displayed an IC50 of 110 nM.

Take `CCCN(C[C@H](O)c1ccc2c(c1C)COC2=O)C1CCC2(CC1)CCN(C1=C(C)C(=O)OC1)C2=O` (stereo partly drawn) [Example 132, 8-{[(2R)-2-hydroxy-2-(4-methyl-1-oxo-1,3-dihydro-2-benzofuran-5-yl)ethyl](propyl)amino}-2-(4-methyl-5-oxo-2,5-dihydrofuran-3-yl)-2-azaspiro[4.5]decan-1-one]: the midpoint of inhibition, the IC50, lay at 100 nM.

Take `CC1=C(N2CC[C@]3(CC[C@@H](NCc4cnc5c(c4)Cn4nnnc4-5)CC3)C2=O)COC1=O` [Example 52, (5r,8r)-8-(((8H-tetrazolo[1′,5′:1,2]pyrrolo[3,4-b]pyridin-6-yl)methyl)amino)-2-(4-methyl-5-oxo-2,5-dihydrofuran-3-yl)-2-azaspiro[4.5]decan-1-one]: it took 160 nM to reach half-maximal inhibition (IC50).

Turning to `CC1=C(N2CC[C@]3(CC[C@@H](NCc4ccc(-n5ncnn5)nn4)CC3)C2=O)COC1=O` [Example 75, (5r,8r)-8-(((6-(2H-tetrazol-2-yl)pyridazin-3-yl)methyl)amino)-2-(4-methyl-5-oxo-2,5-dihydrofuran-3-yl)-2-azaspiro[4.5]decan-1-one], the half-inhibitory concentration (IC50) stood at 9.3 nM.

(Values after patent publication US9718808B2, “Inhibitors of the renal outer medullary potassium channel” (Merck Sharp & Dohme Corp., priority 2014, dated 2017).)
